Data from PubChem BioAssay AID365 (MTDP, 2006).
pIC50: −log10 of the molar value. Active and inactive are the calls of the source. No rule for the calls is given here.

Target: Ribonuclease HI (Escherichia coli (strain K12)) (UniProt P0A7Y4)
Assay: inhibition of bacterial ribonuclease H activity – biochemical, FRET RNA/DNA duplex cleavage, dose response (AID 365)
Settings: E. coli RNase H, FRET RNA/DNA cleavage fluorescence

Ribonuclease HI (Escherichia coli (strain K12)), sequence (P0A7Y4 whole entry, looked up): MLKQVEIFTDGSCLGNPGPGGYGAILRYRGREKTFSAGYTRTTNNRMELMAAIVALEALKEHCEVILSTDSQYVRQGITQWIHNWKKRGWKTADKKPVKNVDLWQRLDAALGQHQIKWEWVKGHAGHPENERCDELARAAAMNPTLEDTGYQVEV

| SMILES | pIC50 | IC50 |
| --- | --- | --- |
| Cc1ccc(-n2c(/C=C/c3ccc(O)c(O)c3)nc3ccccc3c2=O)cc1 | 5.30 | – |
| N#Cc1c(N)nc(SCC(=O)c2ccc(O)c(O)c2)c(C#N)c1-c1ccc(O)cc1 | 5.77 | – |
| O=C1C=CC(=O)C(c2cccc(Cl)c2)=C1 | 5.06 | – |
| Cc1cc(C(=O)O)ccc1-n1c(C)ccc1C | – | > 100 µM (inactive) |
| CCOc1ccc(N2C(=O)/C(=C/c3ccc(I)o3)C(=O)NC2=S)cc1 | 5.62 | – |
| C=C(CCC(C(=O)O)C1CCC2(C)C3=C(CCC12C)C1(C)CCC(O)C(C)(C)C1CC3)C(C)C (stereo not given) | 5.05 | – |
| CCCc1cc(=O)oc2c3c(c4c(c12)OC(C)(C)C=C4)O[C@H](C)[C@@H](C)[C@H]3OC | – | inactive |
| Cc1sc(NC(=O)c2ccc(Br)o2)c(C(N)=O)c1C | 5.40 | – |
| CC1Oc2cc3c(-c4c(O)cc(O)c5c(O)c6c(cc45)OC(C)C(C)C6=O)c(O)cc(O)c3c(O)c2C(=O)C1C (stereo not given) | – | inactive |
| O=C1c2ccc(O)cc2C(=O)c2c1ccc(O)c2O | – | inactive |
| C=C(C)[C@@H]1CCc2c(O)c(O)c(=O)cc(C)c2C1 | – | inactive |
| COc1c(OC)c(O)c2c(=O)cc(-c3ccc(O)c(O)c3)oc2c1OC | – | inactive |
| CC(=O)/C=C/C=C/c1ccc2c(c1)OC(CO)C(c1ccc(O)c(O)c1)O2 (stereo not given) | – | inactive |
| Nc1nc(Sc2ccc([N+](=O)[O-])c3nonc23)c2[nH]cnc2n1 | – | > 100 µM (inactive) |
| Oc1ccc(/C=N/Nc2nncc(-c3ccccc3)n2)c(O)c1O | 5.15 | – |
| Cc1cc(O)c2c(c1O)C(=O)C13C(=C2O)C(=O)C2C(O)C1C1C(O)C3C(=O)C3=C(O)c4c(O)cc(C)c(O)c4C(=O)C321 (stereo not given) | – | inactive |
| COc1cc(/C=N\c2sc3c(c2C(=O)NCc2ccccc2)CCCC3)cc(Cl)c1O | 6.02 | – |
| Nc1c(S(=O)(=O)O)cc(Nc2cccc(S(N)(=O)=O)c2)c2c1C(=O)c1ccccc1C2=O | – | inactive |
| COc1cc(-c2[o+]c3cc(O)cc(O)c3cc2O)cc(O)c1O | – | inactive |
| O=C1C=C(NCCc2cc(Br)c(O)c(Br)c2)C(=O)c2ncccc21 | – | inactive |
| O=c1oc2ccccc2c(O)c1/C=C1\C=Nc2ccccc21 | – | inactive |
| O=C(N/N=C/c1ccc(/C=N/NC(=O)c2ccc(O)c(O)c2)cc1)c1ccc(O)c(O)c1 | 5.68 | – |
| Cc1sc(NC(=O)C2CCCO2)c(C(N)=O)c1C (stereo not given) | – | > 100 µM (inactive) |
| CCOc1ccc(C2=CC(=O)C=CC2=O)cc1 | – | inactive |
| O=C(Nc1ccc(N2CCN(C(=O)c3ccccc3)CC2)cc1)c1ccc(-c2ccccc2)cc1 | 5.42 | – |

| SMILES | pIC50 | IC50 |
| --- | --- | --- |
| Cc1ccc(S(=O)(=O)N=C2C=C(Cl)C(=O)C(Br)=C2)cc1 | – | inactive |
| O=C(Nc1sc2c(c1C(=O)Nc1cccc3ccccc13)CCCCC2)c1ccccc1F | 5.30 | – |
| O=C1C(Cl)=C/C(=N\S(=O)(=O)c2ccccc2)C(Cl)=C1Cl | – | inactive |
| Cc1cc(O)c2c(c1O)C(=O)c1cccc(O)c1C2=O | – | > 100 µM (inactive) |
| O=[N+]([O-])c1ccc(S(=O)(=O)Cc2ccccc2)c2nonc12 | – | inactive |
| Oc1ccc2ccccc2c1C=NCc1c(O)ccc2ccccc12 | – | inactive |
| CCCc1cc(=O)oc2c3c(c4c(c12)OC(C)(C)C=C4)O[C@@H](C)[C@H](C)[C@@H]3F | 5.15 | – |
| CC(C)=Cc1cc(CCC/C(C)=C/Cc2c(O)cc(C)c(C(=O)O)c2O)co1 | – | inactive |
| Cc1ccc(NC(=O)c2c(NC(=O)c3ccccc3F)sc3c2CCCCC3)cc1 | 6.22 | – |
| Cc1ccc(C(=O)Nc2sc(C)c(C)c2C(N)=O)cc1 | 5.66 | – |
| Cc1ccc(-c2n[nH]c(=S)n2/N=C/c2ccc(O)c(O)c2O)cc1 | – | inactive |
| O=C1/C(=C\c2ccc(O)c(O)c2)SC(=S)N1c1cccc(Cl)c1 | 5.54 | – |
| CCCCCCCCCCCCCCCCCCOCC(O)CO (stereo not given) | – | > 100 µM (inactive) |
| CC(C)OC(=O)c1cc(O)c(O)c(O)c1 | – | > 100 µM (inactive) |
| O=C(O)CCc1c2ccc(=O)c(O)c-2oc2c(O)c(O)ccc12 | 5.82 | – |
| CC(C)c1ccc(O)c(O)c(=O)c1 (tested in a mixture with another compound) | – | inactive |
| O=C1NC(=S)N(c2ccc(Cl)cc2)C(=O)/C1=C/c1ccc(Br)o1 | 5.77 | – |
| O=C1NC(=S)N(c2cccc(Cl)c2)C(=O)/C1=C\C=C\c1ccco1 | – | inactive |
| Cc1cc(-c2ccc(C=C3C(=O)NC(=S)NC3=O)o2)c([N+](=O)[O-])cc1C | 5.06 | – |
| COc1cc(C=O)ccc1OCCCOc1cccc(Oc2ccccc2)c1 | 5.39 | – |
| O=C1C(Cl)=C/C(=N\S(=O)(=O)c2ccc(Cl)cc2)C(Cl)=C1Cl | – | inactive |
| O=C1NC(=S)N(c2ccc(Cl)cc2)C(=O)/C1=C\C=C\c1ccccc1[N+](=O)[O-] | 5.06 | – |
| COc1cccc2cc(C(N)=O)c(=O)oc12 | – | > 100 µM (inactive) |
| C=CCn1c(N)c(-c2nc3ccccc3[nH]2)sc1=S | – | inactive |
| CC(=O)O[C@H](C)[C@@H]1C2=C(C(=O)C[C@]1(C)O)C(=O)c1c(ccc(-c3ccc4c(c3O)C(=O)C3=C(C4=O)[C@@H]([C@@H](C)OC(C)=O)[C@@](C)(O)CC3=O)c1O)C2=O | – | > 100 µM (inactive) |

| SMILES | pIC50 | IC50 |
| --- | --- | --- |
| O=c1[nH]c(=S)n(-c2ccccc2F)c(O)c1C=C1C=CC=N1 | 6.10 | – |
| Nc1cc(S(N)(=O)=O)ccc1SSc1ccc(S(N)(=O)=O)cc1N | – | > 100 µM (inactive) |
| CN(C)S(=O)(=O)c1ccc(Nc2ccc(O)c3c2C(=O)c2c([N+](=O)[O-])ccc(O)c2C3=O)cc1 | 5.10 | – |
| COc1ccc(C(=O)NC(=S)Nc2ccc3nn(-c4ccc(C)c(Cl)c4)nc3c2)cc1[N+](=O)[O-] | – | inactive |
| O=C(Oc1ccccc1)Oc1c(Cl)cc2oc(=O)sc2c1Cl | 5.11 | – |
| C=C/C(C)=C/C[C@]1(C)[C@H](C)CC[C@@]23C(=C[C@H](OC(=O)c4ccc(O)c(OC)c4)C[C@@H]12)[C@@H](OC(C)=O)O[C@H]3OC(C)=O | – | inactive |
| Cc1ccc(N2C(=O)/C(=C/c3ccc(O)c(O)c3)SC2=S)cc1C | 5.70 | – |
| CN(C)CN1CSC(=S)N(CN(C)C)C1 | – | inactive |
| O=C(O)c1c(Br)c(Br)c(Br)c(Br)c1C1c2ccc(O)cc2Oc2cc(O)ccc21 | 5.10 | – |
| Cc1ccc(S(=O)(=O)N=C2C=CC(=O)C=C2)c(C)c1 | 5.11 | – |
| CC1=NN(c2ccc(S(N)(=O)=O)cc2)C(=O)/C1=C/c1ccc(-c2ccc(Cl)cc2Cl)o1 | 5.05 | – |
| O=C1c2ccccc2C(=O)c2c(NC3CCCCC3)ccc(Nc3ccc(S(=O)(=O)O)cc3)c21 | – | inactive |
| O=C1/C(=C/c2ccco2)C(=O)N(c2ccc(Br)cc2)C(=S)N1c1ccccc1 | – | inactive |
| O=C1NC(=S)N(c2ccccc2F)C(=O)/C1=C/c1ccc(OCc2cccc(C(=O)O)c2)cc1 | – | inactive |
| CCOc1ccc(N2C(=O)/C(=C/c3ccc(Br)o3)C(=O)NC2=S)cc1 | 6.10 | – |
| CC(C)=CCC/C(C)=C/Cc1cc(/C=C/c2cc(O)c(C/C=C(\C)CCC=C(C)C)c(O)c2)cc(O)c1O | 5.77 | – |
| O=[N+]([O-])c1c(Cl)cccc1-c1c[nH]cc1Cl | – | > 100 µM (inactive) |
| CCOc1ccc(C(=O)Nc2ccc3c(c2)C(=O)c2ccccc2C3=O)cc1 | 5.40 | – |
| O=C1C=CC(=NS(=O)(=O)c2ccc(Cl)c([N+](=O)[O-])c2)C=C1 | 5.15 | – |
| O=C(O)C1Nc2c(Cl)cc(Cl)cc2C2C=CCC12 (stereo not given) | – | inactive |
| O=c1c(O)cccc2cc(O)c(O)c(O)c12 | – | inactive |
| CC1C2C=CC1C(c1c3ccc(=O)c(O)c-3oc3c(O)c(O)ccc13)C2C(=O)O (stereo not given) | 5.89 | – |
| COc1cc([C@@H]2c3cc4c(cc3C[C@H]3COC(=O)[C@@H]32)OCO4)cc(OC)c1O | 5.62 | – |
| O=C1CC(=O)c2ccc3c4c(ccc1c24)C(=O)CC3=O | 5.28 | – |
| O=c1c(O)c(-c2ccc(O)c(O)c2)oc2cc(O)cc(O)c12 | – | inactive |

| SMILES | pIC50 | IC50 |
| --- | --- | --- |
| CC(C)=CCC(O)C1=CC(=O)c2c(O)ccc(O)c2C1=O (stereo not given) | – | inactive |
| CN(C)CS/C(N)=N/C(O)C(Cl)(Cl)Cl (stereo not given) | – | inactive |
| CCC(=O)Nc1sc2c(c1C(=O)Nc1ccc(OC)cc1)CCCCC2 | 5.05 | – |
| FC(F)(F)c1nc2ccc(SSc3ccc4nc(C(F)(F)F)[nH]c4c3)cc2[nH]1 | 5.10 | – |
| c1ccc(C(c2cccc3c2ccc2ccccc23)C(c2ccccc2)c2cccc3c2ccc2ccccc23)cc1 (stereo not given) | 5.12 | – |
| COC(=O)c1cc2cc3cc4cc(CC(=O)O)c(C(=O)/C=C(\O)c5ccccc5O)c(OC)c4c(OC)c3c(O)c2c(=O)o1 | – | inactive |
| O=C(Cc1ccccc1Cl)c1ccc(O)c(O)c1O | – | inactive |
| CC(C)=CCC[C@]1(C)[C@@H](CC=C(C)C)C[C@@]2(CC=C(C)C)C(=O)/C(=C(\O)c3ccc(O)c(O)c3)C(=O)[C@]1(CC=C(C)C)C2=O | 5.68 | – |
| Cc1ccc(C(=O)NC(=S)Nc2ccc(-c3nc4ccccc4s3)cc2)cc1[N+](=O)[O-] | 5.43 | – |
| NC(=O)c1c(NC(=O)CCc2ccccc2)sc2c1CCCCCC2 | 5.70 | – |
| CCCCCCCCCCCCCCCC(=O)OCC1OC(n2ccc(N)nc2=O)C(O)C1O (stereo not given) | 6.19 | – |
| O=C1C=CC(=O)c2c(O)cccc21 | 5.31 | – |
| Nc1ccc(S(=O)(=O)O)c2cccc(O)c12 | – | inactive |
| Cc1ccc(C2COc3cc(O)c(O)cc3C2)cc1 (stereo not given) | – | inactive |
| COc1ccc(N2C(=O)/C(=C\c3cn(CC(=O)Nc4ccccc4)c4ccccc34)C(=O)NC2=S)cc1 | 5.66 | – |
| COc1ccc(-c2nc3sc(-c4ccc(OC)cc4)nc3s2)cc1 | – | > 100 µM (inactive) |
| CC(C)c1ccc(O)c(=O)cc1 | – | > 100 µM (inactive) |
| COC([CH2][Hg][n]1cnc2c1c(=O)n(C)c(=O)n2C)CN1C(=O)c2ccccc2S1(=O)=O (stereo not given) | – | inactive |
| Cc1sc(NC(=O)Cc2ccccc2)c(C(N)=O)c1C | – | inactive |
| O=[N+]([O-])c1cc(Cc2cc([N+](=O)[O-])c3cccnc3c2O)c(O)c2ncccc12 | – | inactive |
| CC(C)c1ccc(O)c(O)c(=O)c1 | – | inactive |
| O=C(O)c1cc(-c2ccc(/C=C3/Sc4ccccc4C3=O)o2)ccc1O | 6.00 | – |
| N#C/C(=C\Nc1ccc(S(=O)(=O)Nc2nccs2)cc1)c1nc(-c2ccc(Cl)cc2)cs1 | 5.92 | – |
| O=S(=O)(Nc1cccc(C(F)(F)F)c1)c1ccc2ccccc2c1 | – | inactive |
| CC(C)=CCc1ccc(O)c(=O)cc1C(C)C | 4.00 | – |
